# Measured values published in patent US10688111B2, “Liquid formulations of compounds active at sulfonylurea receptors” (Biogen Chesapeake LLC, priority 2008, dated 2020).
# Experiment: Stability of glibenclamide injection formulations on storage
# Type: physicochemical
# Settings: formulation with 5 mM meglumine at pH 9
# Description: Glibenclamide stability was investigated by storing several formulations under different conditions for long periods of time. In particular, glibenclamide formulations suitable for injection were stored for up to six months and stability data for these formulations was obtained over that period of time.
# This study assessed the relative stability of 4 batches of glibenclamide formulations suitable for injection. The following studies were conducted.
# All storage cabinets were continually monitored for temperature and humidity using calibrated probes. After removal from long-term storage, all samples were stored at 2-8° C. protected from light while awaiting analysis.
# At each time point, 2 vials of glibenclamide injections will be removed from the storage cabinet from the appropriate conditions and allowed to equilibrate to ambient temperature. This will be used to perform the analyses described above and will be stored under normal laboratory conditions throughout the duration of the analyses.
# The formulations were inspected visually for appearance and for the presence of particulates. The pH of duplicate samples from separate vials was measured to determine formulation pH and to track changes, if any, over the course of time during the stability experiments.
compound,measurement,setting,value
"COc1ccc(Cl)cc1C(=O)NCCc1ccc(S(=O)(=O)NC(=O)NC2CCCCC2)cc1 [Glibenclamide, N-p-(2-[5-Chloro-2-methoxybenzamido]ethyl) benzenesulfonyl-N′-cyclohexylurea]",hydrolysis on storage,"refrigerated samples stored at 2-8° C., FIG. 3A",hydrolysis was not seen
same,physical stability (drug in solution) on storage,stored at 2-8° C.,remained in solution
same,hydrolysis on storage,"stored at elevated temperatures (25° C./60% RH, 40° C./75% RH), FIGS. 3B, 3C",some hydrolysis
